This is an account of results in US20240016953A1, “TARGETED DELIVERY OF NICOTINAMINDE ADENINE DINUCLEOTIDE SALVAGE PATHWAY INHIBITORS” (Seagen Inc., priority 2016, published 2024).

In one assay the target is T1, NAMPT (Homo sapiens, UniProt P43490).
T1 construct: made in house; host or cells: E. coli (pET28a vector, Novagen)
Put plainly: Fluorescence polarization (FP) assay for binding to purified NAMPT. The conditions noted are these: for IC50: NAMPT 120 nM, fluorescent probe 30 nM, 4 hours at room temp. In general terms: Fluorescence polarisation rises when a labelled molecule tumbles more slowly, as on binding a larger partner.

The test system of assay [1] is BxPC-3 (pancreatic adenocarcinoma). In words: Cytotoxicity (CellTiter-Glo) assay, BxPC-3. It is filed as cell-based. The conditions noted are these: Homo sapiens, BXPC-3, read-out: IC50, Cytotoxicity BxPC-3. On the procedure:
(§1) Example 99: Binding and cytoxicity of NAMPTi compounds. NAMPTi compounds and derivatives thereof bearing functional groups on their NAMPT Tail (TN) Units for covalent attachment as a NAMPT Drug Unit to a Linker Unit of a Drug Linker compound or Ligand Drug Conjugate were evaluated for binding to enzymatically competent NAMPT using a fluorescence polarization assay as described in Example X, and for cytotoxicity using the CellTiter-Glo™ assay as described in Example XX. […] In vitro cytotoxicities were more varied, with differences in membrane permeability potentially influencing the observed IC50 values. Tighter-binding compounds determined from the polarization assay representation various NAMPT Head Unit classes were selected for further elaboration into drug linker moieties within Drug Linker compounds and Ligand Drug Conjugates. Those elaborations employed carbamate or benzyl ether functional groups or methylene-alkoxy carbamate (MAC) units for covalent attachment of the NAMPT Drug Unit to a self-immolative Spacer Unit in the Linker Units of the drug linker moieties, depending on the functional group presented by the TN Unit.

In assay [2] the test system is HepG2 (hepatocellular carcinoma). In words: Cytotoxicity (CellTiter-Glo) assay, HepG2. The conditions noted are these: Homo sapiens, HepG2, read-out: IC50, Cytotoxicity HepG2. It is filed as cell-based. The protocol:
as §1
A general note: In ATP-based viability assays light output follows the ATP content of the culture.

Assay [3] has as its system L540cy (Hodgkin's lymphoma). Put plainly: Cytotoxicity (CellTiter-Glo) assay, L540cy. It is filed as cell-based. The following applies: read-out: IC50, Cytotoxicity L540cy. On the procedure: as §1
Assay [4] deals with MOLM-13 (acute myeloid leukemia). Put plainly: Cytotoxicity (CellTiter-Glo) assay, MOLM-13. It is filed as cell-based. The conditions noted are these: Homo sapiens, MOLM-13, read-out: IC50, Cytotoxicity MOLM-13. The protocol: as §1

T1 sequence (P43490 whole entry): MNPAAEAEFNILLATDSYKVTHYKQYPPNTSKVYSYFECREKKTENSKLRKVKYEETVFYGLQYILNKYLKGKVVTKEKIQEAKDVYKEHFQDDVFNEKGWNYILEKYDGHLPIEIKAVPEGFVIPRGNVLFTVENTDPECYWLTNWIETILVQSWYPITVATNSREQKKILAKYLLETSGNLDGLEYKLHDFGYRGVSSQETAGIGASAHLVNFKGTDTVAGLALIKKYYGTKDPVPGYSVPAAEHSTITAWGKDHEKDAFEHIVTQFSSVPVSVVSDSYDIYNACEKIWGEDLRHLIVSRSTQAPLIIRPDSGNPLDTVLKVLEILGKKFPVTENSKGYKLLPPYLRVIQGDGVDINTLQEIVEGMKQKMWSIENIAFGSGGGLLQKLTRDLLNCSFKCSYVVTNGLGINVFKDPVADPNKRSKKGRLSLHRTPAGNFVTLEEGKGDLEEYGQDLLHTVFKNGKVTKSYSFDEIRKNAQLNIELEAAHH

With `N#C/N=C(\NCCCCCCCC(=O)N(CCO)Cc1ccco1)Nc1ccncc1` [compound 81, (E)-8-(2-Cyano-3-(Pyridin-4-Yl)Guanidino)-N-(Furan-2-Ylmethyl)-N-(2-Hydroxyethyl)Octanamide], the IC50 (in general, the concentration needed to halve the response being measured) is 24 nM at NAMPT; 17.7 nM in assay [1]; 6.44 nM in assay [2]; 1.6 nM in assay [3]; 2.07 nM in assay [4].
As to `O=C(/C=C/c1cccnc1)NCCCCC1CCN(C(=O)c2cccc(OCCO)c2)CC1` [compound 9, (E)-N-(4-(1-(3-(2-Hydroxyethoxy)Benzoyl)Piperidin-4-Yl)Butyl)-3-(Pyridin-3-Yl)Acrylamide], the 50% inhibitory concentration (IC50) at NAMPT worked out at 80 nM.
Still for that read-out and setting: the value for `O=C(/C=C/c1cccnc1)NCCCCC1CCN(C(=O)c2ccc(OCCO)cc2)CC1` [compound 10, (E)-N-(4-(1-(4-(2-Hydroxyethoxy)Benzoyl)Piperidin-4-Yl)Butyl)-3-(Pyridin-3-Yl)Acrylamide] was 91 nM.
On to `O=C(/C=C/c1cccnc1)NCCCCC1CCN(C(=O)c2ccccc2)CC1` [FK-866, reference compound], for which the IC50 in assay [1] amounted to 36.2 nM; in assay [2], 5.45 nM; in assay [3], 7.32 nM; in assay [4] it was 6.64 nM.
As to `CN(CCO)C(=O)CCCCCCCNc1c(Nc2ccncc2)c(=O)c1=O` [compound 72], the IC50 on NAMPT stood at 29 nM; in assay [1] it was 1000 nM; in assay [2], 1000 nM; in assay [3], 1000 nM; in assay [4] it was 807 nM.
Turning to `O=C(/C=C/c1cccnc1)NCCCCC1CCN(C(=O)c2ccccc2O)CC1` [compound 8, (E)-N-(4-(1-(2-Hydroxybenzoyl)Piperidin-4-Yl)Butyl)-3-(Pyridin-3-Yl)Acrylamide], the IC50 on NAMPT turned out to be 101 nM; in assay [1] it was 643 nM; in assay [2] it was 221 nM; in assay [3], 87.3 nM; in assay [4], 99 nM.
For `N#C/N=C(\NCCCCCCCC(=O)N1CCC(O)CC1)Nc1ccncc1` [compound 82, (E)-2-Cyano-1-(8-(4-Hydroxypiperidin-1-Yl)-8-Oxooctyl)-3-(Pyridin-4-Yl)Guanidine], the IC50 was 169 nM in assay [1], 25 nM in assay [2], 39 nM in assay [3] and 10 nM in assay [4].
For the compound `O=C(CCCCCCCNc1c(Nc2ccncc2)c(=O)c1=O)N(CCO)Cc1ccco1` [compound 66], the IC50 on NAMPT worked out at 24 nM; in assay [1], 209 nM; in assay [2] it was 59.8 nM; in assay [3], 22.5 nM; in assay [4], 26.9 nM.
On to `O=C(CCCCCCNc1c(Nc2ccncc2)c(=O)c1=O)N(OCCN1CCOCC1)C1CCCCC1` [compound 52, reference compound], for which the IC50 was found to be 41 nM at NAMPT; 39 nM in assay [1]; 8.75 nM in assay [2]; 4.76 nM in assay [3]; 5.26 nM in assay [4].
For `Nc1cccc(C(=O)N2CCC(CCCCNC(=O)/C=C/c3cccnc3)CC2)c1` [compound 3] the same measures were 40 nM, 38.5 nM, 8 nM, 8.5 nM and 7 nM.
In the same order, the values of `O=C(CCCCCCCNc1c(Nc2ccncc2)c(=O)c1=O)N1CC(O)C1` [compound 68] are 27 nM, 1000 nM, 1000 nM, 1000 nM and 811 nM.
`Nc1ccc(C(=O)N2CCC(CCCCNC(=O)/C=C/c3cccnc3)CC2)cc1` [compound 4, (E)-N-(4-(1-(4-Aminobenzoyl)Piperidin-4-Yl)Butyl)-3-(Pyridin-3-y1)Acrylamide] showed an IC50 at NAMPT of 114 nM.
For `CN(CC1(CO)CCCC1)C(=O)CCCCCCCN/C(=N\C#N)Nc1ccncc1` [compound 80, (E)-8-(2-Cyano-3-(Pyridin-4-Yl)Guanidino)-N-((1-(Hydroxymethyl)Cyclopentyl)Methyl)-N-Methyloctanamide], the IC50 at NAMPT is 17 nM; in assay [1], 6.12 nM; in assay [2] it was 1.08 nM; in assay [3] it was 0.78 nM; in assay [4], 1.63 nM.
Regarding `CN(CCON(C(=O)CCCCCCNC(=O)Nc1ccncc1)C1CCCCC1)C(=O)c1cccc(N)c1` [compound 43, 3-Amino-N-(2-((N-Cyclohexyl-7-(3-(Pyridin-4-Yl)Ureido)-Heptanamido)Oxy)Ethyl)-N-Methylbenzamide], the “Change in NAMPT enzyme binding on modification of the TN Unit, relative to parent NAMPTi compound” value on NAMPT (FP assay, in words) is on record as “significant improvement in binding relative to parent compound 30”. Also, the IC50 came out at 82 nM at NAMPT; 8 nM in assay [1]; 4 nM in assay [2]; 3 nM in assay [3]; 6 nM in assay [4].
For `O=C(CCCCCCCNc1c(Nc2ccncc2)c(=O)c1=O)N1CCC(O)CC1` [compound 67], the IC50 at NAMPT came out at 16 nM; in assay [1], 1000 nM; in assay [2], 948 nM; in assay [3], 265 nM; in assay [4], 108 nM.
`N#CN=C(NCCCCCCOc1ccc(Cl)cc1)Nc1ccncc1` [CHS-828, reference compound]: the IC50 in assay [1] was 8.02 nM; in assay [2] it was 1.16 nM; in assay [3] it was 2.22 nM; in assay [4], 4.62 nM.
For the compound `O=C(/C=C/c1cccnc1)NCCCCC1CCN(C(=O)c2cccc(O)c2)CC1` [compound 6, (E)-N-(4-(1-(3-Hydroxybenzoyl)Piperidin-4-Yl)Butyl)-3-(Pyridin-3-Yl)Acrylamide], the concentration for half-maximal inhibition (IC50) at NAMPT came to 36 nM; in assay [1], 193 nM; in assay [2], 29 nM; in assay [3], 20 nM; in assay [4], 8 nM.
With `CN(CC1(CO)CCCC1)C(=O)CCCCCCCNc1c(Nc2ccncc2)c(=O)c1=O` [compound 69, 8-((3,4-Dioxo-2-(Pyridin-4-Ylamino)Cyclobut-1-En-1-Yl)Amino)-N-((1-(Hydroxymethyl)Cyclopentyl)Methyl)-N-Methyloctanamide], the IC50 stood at 35 nM at NAMPT; 96.9 nM in assay [1]; 12.5 nM in assay [2]; 9.12 nM in assay [3]; 18 nM in assay [4].
Take `Nc1ccccc1C(=O)N1CCC(CCCCNC(=O)/C=C/c2cccnc2)CC1` [compound 5, (E)-N-(4-(1-(2-Aminobenzoyl)Piperidin-4-Yl)Butyl)-3-(Pyridin-3-Yl)Acrylamide]: the IC50 amounted to 101 nM on NAMPT; 694 nM in assay [1]; 1000 nM in assay [2]; 35 nM in assay [3]; 40 nM in assay [4].
For the compound `CN(CCO)C(=O)CCCCCCCN/C(=N\C#N)Nc1ccncc1` [compound 83, (E)-8-(2-Cyano-3-(Pyridin-4-Yl)Guanidino)-N-(2-Hydroxyethyl)-N-Methyloctanamide], the IC50 on NAMPT was 32 nM; in assay [1] it was 886 nM; in assay [2], 75.4 nM; in assay [3], 51.2 nM; in assay [4], 153 nM.
Turning to `CCN(CCON(C(=O)CCCCCCNc1c(Nc2ccncc2)c(=O)c1=O)C1CCCCC1)C(=O)c1cccc(N)c1` [compound 60], the IC50 on NAMPT is 62 nM; in assay [1], 126 nM; in assay [2], 35 nM; in assay [3] it was 31 nM; in assay [4], 8 nM.
The compound `O=C(/C=C/c1cccnc1)NCCCCC1CCN(C(=O)c2ccc(O)cc2)CC1` [compound 7, (E)-N-(4-(1-(4-Hydroxybenzoyl)Piperidin-4-Yl)Butyl)-3-(Pyridin-3-Yl)Acrylamide] had an IC50 on NAMPT of 79 nM.
